Data taken from PubChem BioAssay (NCI).
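Each compound was tested at five concentrations against cells in 96-well plates for 48 hours. GI50: concentration for 50% inhibition of growth. The concentration for full growth arrest is given as TGI.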

Experiments:
Test in all cases: NCI tumour cell line growth inhibition, 48 h
[1] = test system: A549 NSCLC
[2] = test system: LOX IMVI melanoma
[3] = test system: HCC-2998 colon
[4] = test system: CAKI-1 renal
[5] = test system: SK-MEL-2 melanoma
[6] = test system: NCI/ADR-RES ovarian
[7] = test system: NCI-H226 lung
[8] = test system: OVCAR-4 ovarian
[9] = test system: HL-60(TB) leukemia
[10] = test system: SK-OV-3 ovarian
[11] = test system: SF-539 CNS
[12] = test system: M19-MEL melanoma
[13] = test system: P388 leukemia
[14] = test system: MOLT-4 leukemia
[15] = test system: OVCAR-8 ovarian
[16] = test system: KM20L2 colon
[17] = test system: SNB-78 CNS
[18] = test system: SF-295 CNS
[19] = test system: HOP-92 NSCLC
[20] = test system: OVCAR-5 ovarian
[21] = test system: KM12 colon
[22] = test system: DMS 273 small cell lung
[23] = test system: MCF7 breast
[24] = test system: K-562 leukemia
[25] = test system: OVCAR-3 ovarian
[26] = test system: CCRF-CEM leukemia
[27] = test system: HOP-18 NSCLC
[28] = test system: UACC-62 melanoma
[29] = test system: SN12C renal
[30] = test system: HOP-62 NSCLC
[31] = test system: SW-620 colon
[32] = test system: COLO 205 colon
[33] = test system: SK-MEL-5 melanoma
[34] = test system: UACC-257 melanoma
[35] = test system: SNB-75 CNS
[36] = test system: P388/ADR leukemia
[37] = test system: UO-31 renal
[38] = test system: SK-MEL-28 melanoma
[39] = test system: HCT-15 colon
[40] = test system: HCT-116 colon
[41] = test system: RXF 393 renal
[42] = test system: DMS 114 small cell lung
[43] = test system: U251 CNS
[44] = test system: NCI-H522 lung
[45] = test system: SNB-19 CNS
[46] = test system: NCI-H23 lung
[47] = test system: NCI-H460 lung
[48] = test system: HT29 colon
[49] = test system: RPMI-8226 leukemia
[50] = test system: EKVX NSCLC
[51] = test system: IGROV1 ovarian
[52] = test system: A498 renal
[53] = test system: SN12K1 renal
[54] = test system: DLD-1 colon
[55] = test system: MALME-3M melanoma
[56] = test system: 786-0 renal
[57] = test system: XF 498 CNS
[58] = test system: TK-10 renal
[59] = test system: LXFL 529 NSCLC
[60] = test system: SF-268 CNS
[61] = test system: M14 melanoma
[62] = test system: ACHN renal
[63] = test system: T-47D breast
[64] = test system: MDA-MB-231 breast
[65] = test system: BT-549 breast
[66] = test system: DU-145 prostate
[67] = test system: RXF-631 renal
[68] = test system: HS 578T breast
[69] = test system: SR leukemia
[70] = test system: PC-3 prostate
[71] = test system: MDA-MB-435

`CN1CCC23c4ccccc4NC1C21CCN(C)C3Nc2ccccc21` showed a TGI [1] of over 375 µM, a TGI [2] of over 375 µM and a TGI [3] of over 375 µM. The TGI [4] was over 164 µM, the TGI [5] was over 375 µM and the TGI [6] was over 375 µM. The TGI [7] was over 209 µM, the TGI [8] was over 375 µM and the TGI [9] was 109 µM. It also gave a TGI [10] of over 375 µM, a TGI [11] of over 375 µM and a TGI [12] of over 375 µM. For the same compound, the TGI [13] was over 124 µM, the TGI [14] was over 165 µM and the TGI [15] was over 37.5 µM. It also gave a TGI [16] of over 350 µM, a TGI [17] of over 158 µM and a TGI [18] of over 375 µM. It also gave a TGI [19] of 296 µM, a TGI [20] of over 375 µM and a TGI [21] of over 284 µM. For the same compound, the TGI [22] was over 375 µM, the TGI [23] was over 375 µM and the TGI [24] was over 187 µM. For the same compound, the TGI [25] was over 375 µM, the TGI [26] was over 188 µM and the TGI [27] was over 375 µM. It also gave a TGI [28] of over 375 µM, a TGI [29] of over 375 µM and a TGI [30] of over 375 µM. It also gave a TGI [31] of over 375 µM, a TGI [32] of over 375 µM and a TGI [33] of over 174 µM. For the same compound, the TGI [34] was 231 µM, the TGI [35] was over 375 µM and the TGI [36] was over 375 µM. The TGI [37] was over 375 µM, the TGI [38] was over 375 µM and the TGI [39] was over 375 µM. For the same compound, the TGI [40] was over 375 µM, the TGI [41] was over 375 µM and the TGI [42] was over 375 µM. For the same compound, the TGI [43] was over 375 µM, the TGI [44] was over 375 µM and the TGI [45] was over 375 µM. It also gave a TGI [46] of over 375 µM, a TGI [47] of over 375 µM and a TGI [48] of over 375 µM. For the same compound, the TGI [49] was over 182 µM, the TGI [50] was over 375 µM and the TGI [51] was over 375 µM. The TGI [52] was over 375 µM, the TGI [53] was over 275 µM and the TGI [54] was over 375 µM. For the same compound, the TGI [55] was over 337 µM.

`O[C@H]1[C@H]2[C@H](O)CCCN2C[C@H]1O` showed a TGI [1] of over 100 µM, a TGI [56] of over 100 µM and a TGI [57] of over 100 µM. For the same compound, the TGI [2] was over 100 µM, the TGI [3] was over 100 µM and the TGI [4] was over 100 µM. It also gave a TGI [5] of over 100 µM, a TGI [7] of over 100 µM and a TGI [8] of over 100 µM. For the same compound, the TGI [58] was over 100 µM, the TGI [9] was over 100 µM and the TGI [10] was over 100 µM. For the same compound, the TGI [11] was over 100 µM, the TGI [12] was over 100 µM and the TGI [14] was over 100 µM. The TGI [15] was over 100 µM, the TGI [16] was over 100 µM and the TGI [59] was over 100 µM. The TGI [17] was over 100 µM, the TGI [18] was over 100 µM and the TGI [19] was over 100 µM. For the same compound, the TGI [20] was over 100 µM, the TGI [21] was over 100 µM and the TGI [22] was over 100 µM. It also gave a TGI [25] of over 100 µM, a TGI [26] of over 100 µM and a TGI [27] of over 100 µM. It also gave a TGI [28] of over 100 µM, a TGI [29] of over 100 µM and a TGI [30] of over 100 µM. It also gave a TGI [31] of over 100 µM, a TGI [32] of over 100 µM and a TGI [33] of over 100 µM. It also gave a TGI [34] of over 100 µM, a TGI [35] of over 100 µM and a TGI [37] of over 100 µM. The TGI [38] was over 100 µM, the TGI [39] was over 100 µM and the TGI [40] was over 100 µM. It also gave a TGI [41] of over 100 µM, a TGI [42] of over 100 µM and a TGI [43] of over 100 µM. For the same compound, the TGI [60] was over 100 µM, the TGI [44] was over 100 µM and the TGI [45] was over 100 µM. The TGI [46] was over 100 µM, the TGI [47] was over 100 µM and the TGI [48] was over 100 µM. The TGI [49] was over 100 µM, the TGI [61] was over 100 µM and the TGI [50] was over 100 µM. The TGI [51] was over 100 µM, the TGI [52] was over 100 µM and the TGI [62] was over 100 µM. It also gave a TGI [54] of over 100 µM and a TGI [55] of over 100 µM.

`CC(=O)C1=C(O)C2(O)C(=O)c3c(c(C)c4ccc(C)c(O)c4c3O)CC2C(N)C1=O` (configuration not stated) gave a TGI [1] of 11.5 µM, a TGI [56] of 16.8 µM and a GI50 [63] of 2.33 µM. It also gave a TGI [63] of 30.5 µM, a TGI [57] of 5.09 µM and a TGI [2] of 11.4 µM. The TGI [3] was 15 µM, the TGI [4] was 7.99 µM and the TGI [5] was over 21 µM. The GI50 [6] was 1.89 µM, the TGI [6] was 13.7 µM and the TGI [7] was 8.2 µM. For the same compound, the TGI [8] was 19 µM, the TGI [58] was 8.86 µM and the TGI [9] was 5.07 µM. It also gave a TGI [10] of 12.6 µM, a TGI [11] of 14.8 µM and a TGI [12] of 11 µM. It also gave a TGI [14] of 8.86 µM, a TGI [15] of 10.7 µM and a TGI [16] of 14.7 µM. The GI50 [64] was 0.73 µM, the TGI [64] was 4.99 µM and the GI50 [65] was 0.762 µM. The TGI [65] was 13.6 µM, the TGI [59] was 10.2 µM and the TGI [18] was 5.6 µM. The TGI [19] was 6.2 µM, the TGI [20] was 14 µM and the TGI [21] was 8.29 µM. It also gave a TGI [22] of 5.54 µM, a GI50 [66] of 2.41 µM and a TGI [66] of 14.7 µM. The GI50 [23] was 2.84 µM, the TGI [23] was 18.3 µM and the TGI [24] was 12.2 µM. The TGI [25] was 13.2 µM, the TGI [26] was 18.6 µM and the TGI [67] was 11.2 µM. The TGI [27] was 13.4 µM, the TGI [28] was 5.25 µM and the TGI [29] was 9.79 µM. For the same compound, the TGI [30] was 10.7 µM, the TGI [31] was 23.6 µM and the TGI [32] was 3.34 µM. For the same compound, the TGI [33] was 3.85 µM, the TGI [34] was 11.9 µM and the TGI [35] was 16.7 µM. It also gave a TGI [37] of 11.1 µM, a GI50 [68] of 1.99 µM and a TGI [68] of 9.48 µM. The TGI [38] was 13.3 µM, the TGI [39] was 9.99 µM and the TGI [40] was 14 µM. It also gave a TGI [41] of 20 µM, a TGI [42] of 7.17 µM and a TGI [69] of 4.47 µM. The TGI [43] was 7.82 µM, the GI50 [70] was 0.754 µM and the TGI [70] was 11.7 µM. The TGI [60] was 13.6 µM, the TGI [44] was over 29.5 µM and the TGI [45] was 23.9 µM. It also gave a TGI [46] of 7.14 µM, a TGI [47] of 9.2 µM and a GI50 [71] of 1.11 µM. For the same compound, the TGI [71] was 4.86 µM, the TGI [48] was 12.3 µM and the TGI [49] was 12.8 µM. The TGI [61] was 23.1 µM, the TGI [50] was 12.2 µM and the TGI [51] was 13 µM. It also gave a TGI [52] of 8.45 µM, a TGI [62] of 7.19 µM and a TGI [54] of 11.7 µM. The TGI [55] was 4.74 µM.
